Key:
Assay in all cases: relative viability (nuclei count vs DMSO), 5 days (fraction); higher = more cells survive
[1] = compound: CC1=C(C(=NN1)C)CC2=C(C3=C(S2)N(C(=O)N(C3=O)C)CC(C)C)C(=O)N4C[C@@H](CO4)O + CS(=O)(=O)N1CCN(Cc2cc3nc(-c4cccc5[nH]ncc45)nc(N4CCOCC4)c3s2)CC1 [Pictilisib] (partner 1 µM)
Summary of the method: (§1)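 Lung cancer cell lines were seeded in 1536-well plates and dosed by pin tool the next day, with either a single drug or a fixed anchor-drug dose combined with five library-drug doses (not always all listed) spaced in √10 steps. Five days later, one step fixed the cells and stained their nuclei (final 0.05% Triton X-100, 1% formaldehyde, 1 ug/ml Hoechst), and nuclei were counted on 4× images. Relative viability is the nuclei count in treated wells divided by the count in vehicle wells, and each value is the median of duplicate plates.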

[2] = compound: Cc1ccccc1C(C(=O)NC1CCCCC1)N(C(=O)Cn1ccnc1C)c1cccc(F)c1 [IDH-C35] + N=C(N)NC(=N)NCCc1ccccc1 [Phenformin] (partner 250 µM)
Summary of the method: as §1

[3] = compound: CC1=C(C(=NN1)C)CC2=C(C3=C(S2)N(C(=O)N(C3=O)C)CC(C)C)C(=O)N4C[C@@H](CO4)O + NC(=O)Nc1cc(-c2cccc(F)c2)sc1C(=O)N[C@H]1CCCNC1 [AZD7762] (partner 0.2 µM)
Summary of the method: as §1

[4] = compound: CC1=C(C(=NN1)C)CC2=C(C3=C(S2)N(C(=O)N(C3=O)C)CC(C)C)C(=O)N4C[C@@H](CO4)O + CC(=O)Nc1cccc(-n2c(=O)n(C3CC3)c(=O)c3c(Nc4ccc(I)cc4F)n(C)c(=O)c(C)c32)c1 [Trametinib] (partner 0.02 µM)
Summary of the method: as §1

Row | Cell Line | relative viability ([1]; first compound 0.0025 µM) | relative viability ([1]; first compound 0.007906 µM) | relative viability ([1]; first compound 0.025 µM) | relative viability ([1]; first compound 0.07906 µM) | relative viability ([1]; first compound 0.25 µM) | relative viability ([2]; first compound 0.08 µM) | relative viability ([2]; first compound 0.253 µM) | relative viability ([2]; first compound 0.8 µM) | relative viability ([2]; first compound 2.53 µM) | relative viability ([2]; first compound 8 µM) | relative viability ([3]; first compound 0.0025 µM) | relative viability ([3]; first compound 0.007906 µM) | relative viability ([3]; first compound 0.025 µM) | relative viability ([3]; first compound 0.07906 µM) | relative viability ([3]; first compound 0.25 µM) | relative viability ([4]; first compound 0.0025 µM) | relative viability ([4]; first compound 0.007906 µM) | relative viability ([4]; first compound 0.025 µM) | relative viability ([4]; first compound 0.07906 µM) | relative viability ([4]; first compound 0.25 µM)
1 | NCI-H1792 | 0.33 | 0.263 | 0.273 | 0.193 | 0.246 | 0.257 | 0.258 | 0.244 | 0.483 | 0.334 | 0.607 | 0.727 | 0.512 | 0.564 | 0.578 | 0.471 | 0.418 | 0.409 | 0.548 | 0.585
2 | ChaGo-K-1 | 0.794 | 0.608 | – | 1.01 | 1.04 | 0.482 | 0.473 | 0.511 | 0.465 | 0.531 | 0.938 | 0.919 | 0.855 | 0.823 | 0.889 | 0.94 | 0.871 | 0.889 | 0.918 | 0.916
3 | LOU-NH91 | 0.503 | 0.494 | 0.495 | 0.571 | 0.529 | 0.78 | 0.784 | 0.685 | 0.752 | 0.497 | 0.817 | 0.817 | 0.75 | 0.863 | 0.742 | 0.802 | 0.756 | 0.812 | 0.826 | 0.792
4 | NCI-H2405 | 0.459 | 0.422 | – | 0.432 | 0.476 | 0.419 | 0.394 | 0.41 | 0.384 | 0.363 | 0.793 | 0.778 | 0.573 | 0.69 | 0.678 | 0.689 | 0.627 | 0.618 | 0.673 | 0.692
5 | LCLC-97TM1 | 0.188 | 0.268 | 0.22 | 0.182 | 0.199 | 0.388 | 0.453 | 0.465 | 0.407 | 0.346 | 0.194 | 0.326 | 0.331 | 0.28 | 0.369 | 0.178 | 0.184 | 0.249 | 0.158 | 0.189
6 | NCI-H596 | 0.387 | 0.369 | 0.387 | 0.431 | 0.593 | 0.781 | 0.819 | 0.705 | – | 0.786 | 1.29 | 1.25 | 1.06 | 0.976 | 1.01 | 0.789 | 0.871 | 0.878 | 0.76 | 0.886
7 | NCI-H727 | 0.403 | 0.483 | 0.336 | 0.385 | 0.517 | 0.471 | 0.525 | 0.509 | 0.493 | 0.579 | 0.6 | 0.842 | 0.575 | 0.623 | 0.652 | 0.348 | 0.374 | 0.442 | 0.379 | 0.34
8 | H3255 | 0.523 | 0.473 | 0.43 | 0.45 | 0.62 | 0.381 | 0.38 | 0.365 | 0.363 | 0.344 | 0.929 | 0.927 | 0.755 | 0.85 | 0.936 | 0.602 | 0.693 | 0.671 | 0.617 | 0.681
9 | NCI-H1437 | 0.461 | 0.44 | 0.451 | 0.46 | 0.465 | 0.334 | 0.288 | 0.336 | 0.322 | 0.274 | 1.21 | 1.07 | 1.09 | 1.11 | 1.14 | 0.617 | 0.675 | 0.543 | 0.563 | 0.511
10 | LU99A | 0.351 | 0.314 | 0.331 | 0.345 | 0.327 | 1.04 | 0.941 | 0.919 | 0.776 | 0.858 | 0.333 | 0.379 | 0.326 | 0.311 | 0.337 | 0.522 | 0.606 | 0.452 | 0.57 | 0.532
11 | HCC-827 | 1.24 | 1.04 | 0.896 | 0.863 | 1.06 | 0.425 | 0.348 | 0.384 | 0.397 | 0.406 | 0.233 | 0.199 | 0.196 | 0.196 | 0.2 | 0.556 | 0.542 | 0.529 | 0.51 | 0.521
12 | LK-2 | 0.548 | 0.509 | 0.67 | 0.696 | 0.607 | 0.564 | 0.474 | 0.476 | 0.27 | 0.623 | 0.304 | 0.252 | 0.298 | 0.129 | 0.134 | 0.703 | 0.952 | 0.651 | 0.613 | 0.61
13 | HCC-366 | 0.139 | 0.141 | 0.25 | 0.193 | 0.212 | 0.658 | 0.629 | 0.621 | – | 0.578 | 0.271 | 0.361 | 0.297 | 0.277 | 0.378 | 0.367 | 0.501 | 0.376 | 0.455 | 0.324
14 | BEN | 0.557 | 0.512 | 0.435 | 0.593 | 0.556 | 0.292 | 0.246 | 0.257 | 0.279 | 0.282 | 0.637 | 0.631 | 0.599 | 0.51 | 0.646 | 0.955 | 0.927 | 0.922 | 0.862 | 0.826
15 | NCI-H23 | 0.528 | 0.489 | 0.523 | 0.494 | 0.651 | 0.824 | 0.746 | 0.788 | 0.756 | 0.705 | 0.23 | 0.208 | 0.298 | 0.271 | 0.31 | 0.42 | 0.526 | 0.421 | 0.359 | 0.397
16 | NCI-H1395 | 0.63 | 0.598 | 0.525 | 0.634 | 0.735 | 0.45 | 0.477 | 0.498 | 0.396 | 0.44 | 0.416 | 0.4 | 0.4 | 0.356 | 0.389 | 1.07 | 0.988 | 0.994 | 1.04 | 1

From the supplement of paper PMC10307832
